Legend:
MS751 cells = assay: MTT cell proliferation assay, MS751; assay type: cell-based, human; details: Homo sapiens, MS751, MS751 cells; eight concentrations 1 nM to 30 μM; incubation approximately 64-72 hours; read-out: MTT Assay IC50, MS751
In short: (§1)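 Absorbance at 490 nm of solubilized formazan, produced during roughly 4 h MTT incubation, gave percent inhibition relative to negative control. Compounds spanned eight concentrations between 1 nM and 30 μM on cells plated overnight at 5,000-10,000 per well.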

Z138 cells = assay: MTT cell proliferation assay, Z138; assay type: cell-based; details: Homo sapiens, Z-138, Z138 cells; eight concentrations 1 nM to 30 μM; incubation approximately 64-72 hours; read-out: MTT Assay IC50, Z138
In short: as §1

3T3 cells = assay: MTT cell proliferation assay, 3T3; assay type: cell-based, mouse; details: Mus musculus, NIH3T3, 3T3 cells; eight concentrations 1 nM to 30 μM; incubation approximately 64-72 hours; read-out: MTT Assay IC50, 3T3
In short: as §1

[1] = system: MDA-MB-468 (triple negative breast) cancer xenograft; assay: MDA-MB-468 mouse xenograft model; assay type: in vivo, CB-17 SCID mice; details: 30 mg/kg QDx5 or 15 mg/kg QDx5 PO for 9 weeks; SCID mice with MDA-MB-468 tumors; versus vehicle
Procedure: The oncological impact of Compound 116 was tested using a MDA-MB-468 (triple negative breast) cancer xenograft model in CB-17 SCID mice. MDA-MB-468 (ATCC # HTB-102) breast adenocarcinoma cells were obtained from ATCC. These cells were grown in high glucose DMEM medium supplemented with 10% fetal bovine serum, 1% penicillin and streptomycin, and 2 mM L-glutamine. Cells were sub-cultured by dilution at a ratio of 1:4. MDA-MB-468 cells were harvested by trypsinization and counted using a hemocytometer. Cells were resuspended in PBS at a concentration of 4×10^8 cells per mL. Cells were placed on ice and mixed with an equal volume of Matrigel (BD Biosciences CB-40234). This mixture was kept on ice and injected into the left flank of mice in a volume of 0.2 mL, equivalent to 4×10^7 cells per mouse. When the tumors reached a mean size of between 100 and 200 mm^3, mice were randomly and prospectively divided. Tumor bearing mice were treated with vehicle or Compound 116 on M-F (QDx5/week) for 9 weeks. Compound 116 was administered orally (PO) at initial doses of 15 and 30 mg/kg five times a week. Animals' weights and condition were recorded daily, tumors were measured once every two days with micro-calipers, and tumor volume was calculated as (length×width×width)/2.

Hep G2 cells = assay: MTT cell proliferation assay, Hep G2; assay type: cell-based; details: Homo sapiens, HepG2, incubation approximately 64-72 hours
Procedure: (§2) The MTT cell proliferation assay was used to study the cytotoxic properties of the compounds. The assay was performed according to the method described by Roche Molecular Biochemicals, with minor modifications. The assay is based on the cleavage of the tetrazolium salt, MTT, in the presence of an electron-coupling reagent. The water-insoluble formazan salt produced must be solubilized in an additional step. Cells grown in a 96-well tissue culture plate were incubated with the MTT solution for approximately 4 hours. After this incubation period, a water-insoluble formazan dye formed. After solubilization, the formazan dye was quantitated using a scanning multi-well spectrophotometer (ELISA reader). […] The cells were seeded at 5,000-10,000 cells in each well of 96-well plate in 100 μL of fresh culture medium and were allowed to attach overnight. The stock solutions of the compounds were diluted in 100 μL cell culture medium to obtain eight concentrations of each test compound, ranging from 1 nM to 30 μM. […] All optical densities were measured at 490 nm using a Vmax Kinetic Microplate Reader (Molecular Devices). In most cases, the assay was performed in duplicate and the results were presented as a mean percent inhibition to the negative control±SE. The following formula was used to calculate the percent of inhibition: Inhibition (%)=(1-(ODo/OD)) ×100.
The M24 cell line is derived from human melanoma cells. The U2OS cell line is a human osteosarcoma cell line expressing wild type p53 and Rb, but lacking p16. The MM1S cell line is a multiple myeloma cell line; the parent cell line, MM.1, was established from peripheral blood of a multiple myeloma patient who had become resistant to steroid-based therapy. The RPMI8226 cell line is derived from human B lymphocyte cells. NHDF cells are normal human dermal fibroblast cells. The MRC-5 cell line is derived from normal lung tissue of a fetus. The LN18 cell line is a human malignant glioma cell line. The DU-145 cell line is a human prostate cancer cell line. A549 cells are human adenocarcinomic human alveolar basal epithelial cells. The MOLT4 cell line is a human acute lymphoblastic leukemia cell line. The THP1 cell line is a human leukemic monocytic cell line derived from peripheral blood. The OCIAML5 cell line is a human acute myeloid leukemia cell line. The MDA-MB-231 cell line is a human breast adenocarcinoma cell line. The MDA-MB-468 cell line is a human breast carcinoma cell line. HL-60 cells are human promyelocytic leukemia cells. Hep G2 cells are human hepatocellular carcinoma cells. HEP 3B cells are human hepatocellular carcinoma cells. The DLD-1 cell line is a colorectal adenocarcinoma cell line. The HCT-15 cell line is a human colon carcinoma cell line. The Colo-205 cell line is derived from a human adenocarcinoma of the colon. […]

M24 cell line = assay: MTT cell proliferation assay, M24; assay type: cell-based; details: Homo sapiens, incubation approximately 64-72 hours
Procedure: as §2, with “×100. […]” for “×100.”

DLD-1 cell line = assay: MTT cell proliferation assay, DLD-1; assay type: cell-based; details: Homo sapiens, incubation approximately 64-72 hours
Procedure: as §2, with “×100. […]” for “×100.”

[2] = system: PAK4 interactors and downstream proteins; assay: Immunoblots of PAK4 interactors and downstream proteins in U2OS cells; assay type: cell-based, human; details: 0.5 μM or 5 μM, 72 hours
Procedure: Immunoblots were used to measure the effects of exemplary compounds on protein steady-state levels and phophorylation of PAK4 interactor and downstream proteins. Specifically, U2OS (osteosarcoma) cells were split and plated on day 1. After overnight attachment to the tissue culture plate, cells were treated with either DMSO (0), 37 nM, 111 nM, 333 nM, 1 μM, or 3 μM Compound 246 for 72 hours. Cells were collected, washed and lysed in RIPA buffer. After obtaining the protein concentration by BCA assay, lysates were boiled in loading buffer and run on SDS-PAGE. The gels were transferred to nitrocellulose membranes and blotted with antibodies raised against phosphor-PAK4, PAK4, phophos-beta-catenin, beta-catenin, GEF-H1, phospho-Akt, Akt, phospho-ERK1/2, ERK1/2, phospho-cofilin, cofilin, phospho-histone H3, histone H3, cyclin D1, Mcl-1, Bcl-2, p21, survivin, caspase 8, caspase 3, PARP, and beta-actin (loading control).
In another experiment, U2OS (osteosarcoma) cells were split and plated on day 1. After overnight attachment to the tissue culture plate, cells were treated with DMSO (Ct), 0.5 μM, or 5 μM of Compound 124, 369, 226, 246, or 907 for 72 hours. Cells were collected, washed and lysed in RIPA buffer. After obtaining the protein concentration by BCA assay, lysates were boiled in loading buffer and run on SDS-PAGE. The gels were transferred to nitrocellulose membranes and blotted with antibodies raised against phophos-beta-catenin, cyclin D1, PAK4, phospho-cofilin, and beta-actin (loading control).

Colo-205 cell line = assay: MTT cell proliferation assay, Colo-205; assay type: cell-based; details: Homo sapiens, incubation approximately 64-72 hours
Procedure: as §2, with “×100. […]” for “×100.”

MRC-5 cell line = assay: MTT cell proliferation assay, MRC-5; assay type: cell-based; details: Homo sapiens, MRC5, incubation approximately 64-72 hours
Procedure: as §2, with “×100. […]” for “×100.”

MDA-MB-468 cell line = assay: MTT cell proliferation assay, MDA-MB-468; assay type: cell-based; details: Homo sapiens, incubation approximately 64-72 hours
Procedure: as §2, with “×100. […]” for “×100.”

MDA-MB-231 cell line = assay: MTT cell proliferation assay, MDA-MB-231; assay type: cell-based; details: Homo sapiens, incubation approximately 64-72 hours
Procedure: as §2, with “×100. […]” for “×100.”

LoVo cell line = assay: MTT cell proliferation assay, LoVo; assay type: cell-based; details: Homo sapiens, incubation approximately 64-72 hours
Procedure: as §2, with “×100. […]” for “×100.”

RPMI8226 cell line = assay: MTT cell proliferation assay, RPMI8226; assay type: cell-based; details: Homo sapiens, RPMI-8226, incubation approximately 64-72 hours
Procedure: as §2, with “×100. […]” for “×100.”

HEP 3B cells = assay: MTT cell proliferation assay, HEP 3B; assay type: cell-based; details: Homo sapiens, Hep3B, incubation approximately 64-72 hours
Procedure: as §2
(§3) The M24 cell line is derived from human melanoma cells. The U2OS cell line is a human osteosarcoma cell line expressing wild type p53 and Rb, but lacking p16. The MM1S cell line is a multiple myeloma cell line; the parent cell line, MM.1, was established from peripheral blood of a multiple myeloma patient who had become resistant to steroid-based therapy. The RPMI8226 cell line is derived from human B lymphocyte cells. NHDF cells are normal human dermal fibroblast cells. The MRC-5 cell line is derived from normal lung tissue of a fetus. The LN18 cell line is a human malignant glioma cell line. The DU-145 cell line is a human prostate cancer cell line. A549 cells are human adenocarcinomic human alveolar basal epithelial cells. […]

HCT-15 cell line = assay: MTT cell proliferation assay, HCT-15; assay type: cell-based; details: Homo sapiens, incubation approximately 64-72 hours
Procedure: as §2, with “×100. […]” for “×100.”

NHDF cells = assay: MTT cell proliferation assay, NHDF; assay type: cell-based; details: Homo sapiens, incubation approximately 64-72 hours
Procedure: as §2, with “×100. […]” for “×100.”

U2OS cell line = assay: MTT cell proliferation assay, U2OS; assay type: cell-based; details: Homo sapiens, incubation approximately 64-72 hours
Procedure: as §2, with “×100. […]” for “×100.”

MM1S cell line = assay: MTT cell proliferation assay, MM1S; assay type: cell-based; details: Homo sapiens, MM1.S, incubation approximately 64-72 hours
Procedure: as §2, §3

DU-145 cell line = assay: MTT cell proliferation assay, DU-145; assay type: cell-based; details: Homo sapiens, incubation approximately 64-72 hours
Procedure: as §2, with “×100. […]” for “×100.”

CC(=O)c1ccc(-c2cc(Cl)c3c(c2)CC(CNC(=O)/C=C/c2ccc(N)nc2)O3)s1 (stereo not drawn) [Compound 116, (E)-N-((5-(5-acetylthiophen-2-yl)-7-chloro-2,3-dihydrobenzofuran-2-yl)methyl)-3-(6-aminopyridin-3-yl)acrylamide]
5000 to 30000 nM: IC50 (3T3 cells)
reduced: mean tumor volume [1]
100 to 5000 nM: IC50 (MS751 cells) | IC50 (Z138 cells)

CC(O)c1ccc(-c2cc(Cl)c3c(c2)CC(CNC(=O)/C=C/c2cccnc2)O3)s1 (stereo not drawn) [Compound 124]
decreases in phosphorylation: phosphorylation of PAK4 signaling proteins beta-catenin and cofilin [2]
< 100 nM: IC50 (MS751 cells) | IC50 (Z138 cells) | IC50 (MRC-5 cell line) | IC50 (U2OS cell line) | IC50 (MM1S cell line)
decrease: PAK4 total protein [2]
100 to 5000 nM: IC50 (Hep G2 cells) | IC50 (M24 cell line) | IC50 (DLD-1 cell line) | IC50 (Colo-205 cell line) | IC50 (MDA-MB-468 cell line) | IC50 (MDA-MB-231 cell line) | IC50 (LoVo cell line) | IC50 (RPMI8226 cell line) | IC50 (HEP 3B cells) | IC50 (HCT-15 cell line) | IC50 (3T3 cells) | IC50 (NHDF cells) | IC50 (DU-145 cell line)

— US9938258B2 (Karyopharm Therapeutics Inc., priority 2012, dated 2018)
